The NIST ThermoML archive (doi:10.1007/s10765-006-0100-z)
± gives the expanded uncertainty stated by the source.

Key:
[1] = xn = mol fraction of the nth substance listed; conditions: 101 kPa, Liquid; for mass density: Vibrating tube method
[2] = 101 kPa, Liquid; for mass density: Vibrating tube method

Structure (SMILES): CCCCCl [1-chlorobutane] + C1CCOCC1
- mass density ([1]; 298.15 K, x2 = 0): 880.69 ± 2 kg/m3
- mass density ([1]; 298.15 K, x2 = 0.0521): 880.67 ± 2 kg/m3
- mass density ([1]; 298.15 K, x2 = 0.1006): 880.66 ± 2 kg/m3
- mass density ([1]; 298.15 K, x2 = 0.1949): 880.62 ± 2 kg/m3
- mass density ([1]; 298.15 K, x2 = 0.2549): 880.59 ± 2 kg/m3
- mass density ([1]; 298.15 K, x2 = 0.3774): 880.48 ± 2 kg/m3
- mass density ([1]; 298.15 K, x2 = 0.5035): 880.26 ± 2 kg/m3
- mass density ([1]; 298.15 K, x2 = 0.5948): 880.06 ± 2 kg/m3
- mass density ([1]; 298.15 K, x2 = 0.661): 879.87 ± 2 kg/m3
- mass density ([1]; 298.15 K, x2 = 0.7893): 879.49 ± 2 kg/m3
- mass density ([1]; 298.15 K, x2 = 0.9203): 879.07 ± 2 kg/m3
- mass density ([1]; 298.15 K, x2 = 0.9666): 878.91 ± 2 kg/m3
- kinematic viscosity ([1]; 298.15 K, x2 = 0): 4.78e-07 ± 7.1e-09 m2/s
- kinematic viscosity ([1]; 298.15 K, x2 = 0.0243): 4.84e-07 ± 7.2e-09 m2/s
- kinematic viscosity ([1]; 298.15 K, x2 = 0.1039): 5.02e-07 ± 7.4e-09 m2/s
- kinematic viscosity ([1]; 298.15 K, x2 = 0.2058): 5.29e-07 ± 7.7e-09 m2/s
- kinematic viscosity ([1]; 298.15 K, x2 = 0.307): 5.59e-07 ± 8.1e-09 m2/s
- kinematic viscosity ([1]; 298.15 K, x2 = 0.3984): 5.89e-07 ± 8.4e-09 m2/s
- kinematic viscosity ([1]; 298.15 K, x2 = 0.5077): 6.3e-07 ± 8.9e-09 m2/s
- kinematic viscosity ([1]; 298.15 K, x2 = 0.6038): 6.69e-07 ± 9.4e-09 m2/s
- kinematic viscosity ([1]; 298.15 K, x2 = 0.7064): 7.18e-07 ± 1e-08 m2/s
- kinematic viscosity ([1]; 298.15 K, x2 = 0.7994): 7.68e-07 ± 1.1e-08 m2/s
- kinematic viscosity ([1]; 298.15 K, x2 = 0.9058): 8.37e-07 ± 1.1e-08 m2/s
- kinematic viscosity ([1]; 298.15 K, x2 = 0.9498): 8.7e-07 ± 1.2e-08 m2/s
- mass density ([1]; 313.15 K, x2 = 0): 863.82 ± 2 kg/m3
- mass density ([1]; 313.15 K, x2 = 0.0348): 863.98 ± 2 kg/m3
- mass density ([1]; 313.15 K, x2 = 0.0899): 864.19 ± 2 kg/m3
- mass density ([1]; 313.15 K, x2 = 0.1717): 864.39 ± 2 kg/m3
- mass density ([1]; 313.15 K, x2 = 0.2933): 864.54 ± 2 kg/m3
- mass density ([1]; 313.15 K, x2 = 0.413): 864.6 ± 2 kg/m3
- mass density ([1]; 313.15 K, x2 = 0.4926): 864.61 ± 2 kg/m3
- mass density ([1]; 313.15 K, x2 = 0.6026): 864.59 ± 2 kg/m3
- mass density ([1]; 313.15 K, x2 = 0.7085): 864.52 ± 2 kg/m3
- mass density ([1]; 313.15 K, x2 = 0.8006): 864.45 ± 2 kg/m3
- mass density ([1]; 313.15 K, x2 = 0.899): 864.22 ± 2 kg/m3
- mass density ([1]; 313.15 K, x2 = 0.9724): 863.88 ± 2 kg/m3
- kinematic viscosity ([1]; 313.15 K, x2 = 0): 4.21e-07 ± 6.5e-09 m2/s
- kinematic viscosity ([1]; 313.15 K, x2 = 0.0243): 4.28e-07 ± 6.5e-09 m2/s
- kinematic viscosity ([1]; 313.15 K, x2 = 0.1039): 4.42e-07 ± 6.7e-09 m2/s
- kinematic viscosity ([1]; 313.15 K, x2 = 0.2058): 4.63e-07 ± 7e-09 m2/s
- kinematic viscosity ([1]; 313.15 K, x2 = 0.307): 4.86e-07 ± 7.2e-09 m2/s
- kinematic viscosity ([1]; 313.15 K, x2 = 0.3984): 5.09e-07 ± 7.5e-09 m2/s
- kinematic viscosity ([1]; 313.15 K, x2 = 0.5077): 5.4e-07 ± 7.9e-09 m2/s
- kinematic viscosity ([1]; 313.15 K, x2 = 0.6038): 5.72e-07 ± 8.2e-09 m2/s
- kinematic viscosity ([1]; 313.15 K, x2 = 0.7064): 6.1e-07 ± 8.7e-09 m2/s
- kinematic viscosity ([1]; 313.15 K, x2 = 0.7994): 6.49e-07 ± 9.2e-09 m2/s
- kinematic viscosity ([1]; 313.15 K, x2 = 0.9058): 7.01e-07 ± 9.8e-09 m2/s
- kinematic viscosity ([1]; 313.15 K, x2 = 0.9498): 7.25e-07 ± 1e-08 m2/s

Structure (SMILES): C1CCOCC1 [tetrahydropyran] + CC(C)CCl
- mass density ([1]; 298.15 K, x1 = 1): 878.81 ± 2 kg/m3
- kinematic viscosity ([1]; 298.15 K, x1 = 1): 9.1e-07 ± 1.2e-08 m2/s
- mass density ([1]; 313.15 K, x1 = 1): 863.67 ± 2 kg/m3
- kinematic viscosity ([1]; 313.15 K, x1 = 1): 7.57e-07 ± 1e-08 m2/s

Structure (SMILES): CC(C)(C)Cl [2-chloro-2-methylpropane]
- kinematic viscosity ([2]; 298.15 K): 5.68e-07 ± 8.2e-09 m2/s
- mass density ([2]; 298.15 K): 836.45 ± 2 kg/m3
- kinematic viscosity ([2]; 313.15 K): 4.77e-07 ± 7.1e-09 m2/s
- mass density ([2]; 313.15 K): 818.31 ± 2 kg/m3

Structure (SMILES): CC(C)CCl [1-chloro-2-methylpropane]
- kinematic viscosity ([2]; 298.15 K): 4.93e-07 ± 7.3e-09 m2/s
- mass density ([2]; 298.15 K): 871.13 ± 2 kg/m3
- kinematic viscosity ([2]; 313.15 K): 4.29e-07 ± 6.6e-09 m2/s
- mass density ([2]; 313.15 K): 853.51 ± 2 kg/m3

Structure (SMILES): CCC(C)Cl (stereo unspecified) [2-chlorobutane]
- kinematic viscosity ([2]; 298.15 K): 4.54e-07 ± 6.8e-09 m2/s
- mass density ([2]; 298.15 K): 867.37 ± 2 kg/m3
- kinematic viscosity ([2]; 313.15 K): 3.96e-07 ± 6.2e-09 m2/s
- mass density ([2]; 313.15 K): 850.13 ± 2 kg/m3

Structure (SMILES): CCCCCl [1-chlorobutane]
- kinematic viscosity ([2]; 298.15 K): 4.78e-07 ± 7.1e-09 m2/s
- mass density ([2]; 298.15 K): 880.69 ± 2 kg/m3
- kinematic viscosity ([2]; 313.15 K): 4.21e-07 ± 6.5e-09 m2/s
- mass density ([2]; 313.15 K): 863.82 ± 2 kg/m3

Structure (SMILES): CC(C)(C)Cl [2-chloro-2-methylpropane] + C1CCOCC1
- mass density ([1]; 298.15 K, x2 = 0): 836.45 ± 2 kg/m3
- mass density ([1]; 298.15 K, x2 = 0.0324): 838.08 ± 2 kg/m3
- mass density ([1]; 298.15 K, x2 = 0.1086): 842.07 ± 2 kg/m3
- mass density ([1]; 298.15 K, x2 = 0.2097): 847.11 ± 2 kg/m3
- mass density ([1]; 298.15 K, x2 = 0.2891): 851.05 ± 2 kg/m3
- mass density ([1]; 298.15 K, x2 = 0.4276): 857.41 ± 2 kg/m3
- mass density ([1]; 298.15 K, x2 = 0.496): 860.32 ± 2 kg/m3
- mass density ([1]; 298.15 K, x2 = 0.6107): 864.98 ± 2 kg/m3
- mass density ([1]; 298.15 K, x2 = 0.6483): 866.46 ± 2 kg/m3
- mass density ([1]; 298.15 K, x2 = 0.8093): 872.39 ± 2 kg/m3
- mass density ([1]; 298.15 K, x2 = 0.8606): 874.22 ± 2 kg/m3
- mass density ([1]; 298.15 K, x2 = 0.954): 877.25 ± 2 kg/m3
- kinematic viscosity ([1]; 298.15 K, x2 = 0): 5.68e-07 ± 8.2e-09 m2/s
- kinematic viscosity ([1]; 298.15 K, x2 = 0.0614): 5.84e-07 ± 8.4e-09 m2/s
- kinematic viscosity ([1]; 298.15 K, x2 = 0.1075): 5.96e-07 ± 8.5e-09 m2/s
- kinematic viscosity ([1]; 298.15 K, x2 = 0.2173): 6.27e-07 ± 8.9e-09 m2/s
- kinematic viscosity ([1]; 298.15 K, x2 = 0.3205): 6.57e-07 ± 9.3e-09 m2/s
- kinematic viscosity ([1]; 298.15 K, x2 = 0.42): 6.88e-07 ± 9.6e-09 m2/s
- kinematic viscosity ([1]; 298.15 K, x2 = 0.5176): 7.2e-07 ± 1e-08 m2/s
- kinematic viscosity ([1]; 298.15 K, x2 = 0.6155): 7.54e-07 ± 1e-08 m2/s
- kinematic viscosity ([1]; 298.15 K, x2 = 0.7156): 7.91e-07 ± 1.1e-08 m2/s
- kinematic viscosity ([1]; 298.15 K, x2 = 0.8277): 8.35e-07 ± 1.1e-08 m2/s
- kinematic viscosity ([1]; 298.15 K, x2 = 0.9097): 8.7e-07 ± 1.2e-08 m2/s
- kinematic viscosity ([1]; 298.15 K, x2 = 0.9547): 8.89e-07 ± 1.2e-08 m2/s
- mass density ([1]; 313.15 K, x2 = 0): 818.31 ± 2 kg/m3
- mass density ([1]; 313.15 K, x2 = 0.0584): 821.7 ± 2 kg/m3
- mass density ([1]; 313.15 K, x2 = 0.0875): 823.35 ± 2 kg/m3
- mass density ([1]; 313.15 K, x2 = 0.1943): 829.15 ± 2 kg/m3
- mass density ([1]; 313.15 K, x2 = 0.3028): 834.83 ± 2 kg/m3
- mass density ([1]; 313.15 K, x2 = 0.4249): 840.83 ± 2 kg/m3
- mass density ([1]; 313.15 K, x2 = 0.4929): 843.99 ± 2 kg/m3
- mass density ([1]; 313.15 K, x2 = 0.6093): 849.16 ± 2 kg/m3
- mass density ([1]; 313.15 K, x2 = 0.7052): 853.15 ± 2 kg/m3
- mass density ([1]; 313.15 K, x2 = 0.7988): 856.89 ± 2 kg/m3
- mass density ([1]; 313.15 K, x2 = 0.9097): 860.95 ± 2 kg/m3
- mass density ([1]; 313.15 K, x2 = 0.9614): 862.64 ± 2 kg/m3
- kinematic viscosity ([1]; 313.15 K, x2 = 0): 4.77e-07 ± 7.1e-09 m2/s
- kinematic viscosity ([1]; 313.15 K, x2 = 0.0451): 4.87e-07 ± 7.2e-09 m2/s
- kinematic viscosity ([1]; 313.15 K, x2 = 0.0887): 4.97e-07 ± 7.4e-09 m2/s
- kinematic viscosity ([1]; 313.15 K, x2 = 0.1978): 5.21e-07 ± 7.6e-09 m2/s
- kinematic viscosity ([1]; 313.15 K, x2 = 0.3053): 5.47e-07 ± 7.9e-09 m2/s
- kinematic viscosity ([1]; 313.15 K, x2 = 0.3972): 5.7e-07 ± 8.2e-09 m2/s
- kinematic viscosity ([1]; 313.15 K, x2 = 0.5024): 5.98e-07 ± 8.6e-09 m2/s
- kinematic viscosity ([1]; 313.15 K, x2 = 0.6359): 6.36e-07 ± 9e-09 m2/s
- kinematic viscosity ([1]; 313.15 K, x2 = 0.7056): 6.57e-07 ± 9.3e-09 m2/s
- kinematic viscosity ([1]; 313.15 K, x2 = 0.796): 6.86e-07 ± 9.6e-09 m2/s
- kinematic viscosity ([1]; 313.15 K, x2 = 0.9063): 7.23e-07 ± 1e-08 m2/s
- kinematic viscosity ([1]; 313.15 K, x2 = 0.9526): 7.4e-07 ± 1e-08 m2/s
